HELM strings list units from the 5' end as sugar, base in round brackets, then linkage (d deoxyribose, r ribose, m 2'-O-methyl, p phosphodiester). Strings are as the collection lists them; they lack the last nucleoside at the 3' end of the tested compound. [moe] = 2'-O-(2-methoxyethyl) (MOE); [sp] = phosphorothioate linkage; [m5C] = 5-methylcytosine

This passage reports 3 h FOB score results from the OligoGym collection.

The target in this data set is C9ORF72. The experiment in a line: mouse, dose not given. The settings on record: ASO.
With “RNA1{[moe](A)[sp].[moe](A)[sp].[moe](T)[sp].[moe]([m5C])[sp].[moe](T)[sp].d(T)[sp].d(T)[sp].d(A)[sp].d(T)[sp].d([m5C])[sp].d(A)[sp].d(G)[sp].d(G)[sp].d(T)[sp].d([m5C])[sp].[moe](T)[sp].[moe](T)[sp].[moe](T)[sp].[moe](T)}$$$$ (last 3' nucleoside missing)”, the 3 h FOB score came to 6.5 score 0-7. The figure for “RNA1{[moe](A)[sp].[moe](G)p.[moe](G)p.[moe]([m5C])[sp].d(T)[sp].d(G)[sp].d([m5C])[sp].d(G)[sp].d(G)[sp].d(T)[sp].d(T)[sp].d(G)[sp].[moe](T)p.[moe](T)p.[moe](T)p.[moe]([m5C])[sp].[moe]([m5C])}$$$$ (last 3' nucleoside missing)” is 7 score 0-7; for “RNA1{[moe](A)[sp].[moe](G)p.[moe](G)p.[moe]([m5C])p.[moe](T)p.[moe](G)[sp].d([m5C])[sp].d(G)[sp].d(G)[sp].d(T)[sp].d(T)[sp].d(G)[sp].d(T)[sp].d(T)[sp].[moe](T)p.[moe]([m5C])[sp].[moe]([m5C])}$$$$ (last 3' nucleoside missing)” it is 5.25 score 0-7.

Regarding “RNA1{[moe](A)[sp].[moe](G)p.[moe](G)p.[moe]([m5C])p.[moe](T)p.[moe](G)p.d([m5C])[sp].d(G)[sp].d(G)[sp].d(T)[sp].d(T)[sp].d(G)[sp].d(T)[sp].d(T)[sp].d(T)[sp].[moe]([m5C])p.[moe]([m5C])[sp].[moe]([m5C])}$$$$ (last 3' nucleoside missing)”, the 3 h FOB score was 6 score 0-7.

As to “RNA1{[moe](A)[sp].[moe](G)p.[moe](G)p.[moe]([m5C])p.[moe](T)p.[moe](G)p.d([m5C])[sp].d(G)[sp].d(G)[sp].d(T)[sp].d(T)[sp].d(G)[sp].d(T)[sp].d(T)[sp].d(T)[sp].d([m5C])[sp].[moe]([m5C])p.[moe]([m5C])[sp].[moe](T)}$$$$ (last 3' nucleoside missing)”, the 3 h FOB score stood at 4 score 0-7. For the substance “RNA1{[moe](A)[sp].[moe](G)p.[moe](G)p.[moe]([m5C])p.[moe](T)p.d(G)[sp].d([m5C])[sp].d(G)[sp].d(G)[sp].d(T)[sp].d(T)[sp].d(G)[sp].d(T)[sp].d(T)[sp].[moe](T)p.[moe]([m5C])p.[moe]([m5C])[sp].[moe]([m5C])}$$$$ (last 3' nucleoside missing)”, the 3 h FOB score was determined as 6.25 score 0-7. To “RNA1{[moe](A)[sp].[moe](G)p.[moe](G)p.[moe]([m5C])p.d(T)[sp].d(G)[sp].d([m5C])[sp].d(G)[sp].d(G)[sp].d(T)[sp].d(T)[sp].d(G)[sp].d(T)[sp].[moe](T)p.[moe](T)p.[moe]([m5C])p.[moe]([m5C])[sp].[moe]([m5C])}$$$$ (last 3' nucleoside missing)” belongs 6.5 score 0-7; to “RNA1{[moe](A)[sp].[moe](G)p.[moe](G)p.[moe]([m5C])p.d(T)[sp].d(G)[sp].d([m5C])[sp].d(G)[sp].d(G)[sp].d(T)[sp].d(T)[sp].d(G)[sp].d(T)[sp].d(T)[sp].[moe](T)p.[moe]([m5C])p.[moe]([m5C])p.[moe]([m5C])[sp].[moe](T)}$$$$ (last 3' nucleoside missing)”, 6.25 score 0-7; to “RNA1{[moe](G)[sp].[moe](G)[sp].[moe](G)[sp].[moe](A)[sp].[moe]([m5C])[sp].d(A)[sp].d([m5C])[sp].d(T)[sp].d(A)[sp].d([m5C])[sp].d(A)[sp].d(A)[sp].d(G)[sp].d(G)[sp].d(T)[sp].[moe](A)[sp].[moe](G)[sp].[moe](T)[sp].[moe](A)}$$$$ (last 3' nucleoside missing)”, 5.67 score 0-7. In turn, “RNA1{[moe](G)[sp].[moe](G)[sp].[moe](T)[sp].[moe](A)[sp].[moe](A)[sp].d([m5C])[sp].d(T)[sp].d(T)[sp].d([m5C])[sp].d(A)[sp].d(A)[sp].d(A)[sp].d([m5C])[sp].d(T)[sp].d([m5C])[sp].[moe](T)[sp].[moe](T)[sp].[moe](G)[sp].[moe](G)}$$$$ (last 3' nucleoside missing)” gave a 3 h FOB score of 7 score 0-7. To “RNA1{[moe](G)[sp].[moe](G)p.[moe](T)p.[moe](T)[sp].d(A)[sp].d(A)[sp].d(T)[sp].d([m5C])[sp].d(T)[sp].d(T)[sp].d(T)[sp].d(A)[sp].[moe](T)p.[moe]([m5C])p.[moe](A)p.[moe](G)[sp].[moe](G)}$$$$ (last 3' nucleoside missing)” belongs 1 score 0-7; to “RNA1{[moe](G)[sp].[moe](G)p.[moe](T)p.[moe](T)p.[moe](A)p.[moe](A)[sp].d(T)[sp].d([m5C])[sp].d(T)[sp].d(T)[sp].d(T)[sp].d(A)[sp].d(T)[sp].d([m5C])[sp].[moe](A)p.[moe](G)[sp].[moe](G)}$$$$ (last 3' nucleoside missing)”, 1.25 score 0-7; to “RNA1{[moe](G)[sp].[moe](G)p.[moe](T)p.[moe](T)p.[moe](A)p.[moe](A)p.[moe](T)p.d([m5C])[sp].d(T)[sp].d(T)[sp].d(T)[sp].d(A)[sp].d(T)[sp].d([m5C])[sp].d(A)[sp].d(G)[sp].d(G)[sp].[moe](T)[sp].[moe]([m5C])}$$$$ (last 3' nucleoside missing)”, 5.75 score 0-7. “RNA1{[moe](G)[sp].[moe](G)p.[moe](T)p.[moe](T)p.[moe](A)p.[moe](A)p.d(T)[sp].d([m5C])[sp].d(T)[sp].d(T)[sp].d(T)[sp].d(A)[sp].d(T)[sp].d([m5C])[sp].d(A)[sp].d(G)[sp].[moe](G)p.[moe](T)[sp].[moe]([m5C])}$$$$ (last 3' nucleoside missing)” yielded a 3 h FOB score of 1.5 score 0-7.

“RNA1{[moe](G)[sp].[moe](G)p.[moe](T)p.[moe](T)p.d(A)[sp].d(A)[sp].d(T)[sp].d([m5C])[sp].d(T)[sp].d(T)[sp].d(T)[sp].d(A)[sp].d(T)[sp].d([m5C])[sp].[moe](A)p.[moe](G)p.[moe](G)p.[moe](T)[sp].[moe]([m5C])}$$$$ (last 3' nucleoside missing)” yielded a 3 h FOB score of 0 score 0-7. The substance “RNA1{[moe](G)[sp].[moe](G)p.[moe](T)p.d(T)[sp].d(A)[sp].d(A)[sp].d(T)[sp].d([m5C])[sp].d(T)[sp].d(T)[sp].d(T)[sp].d(A)[sp].d(T)[sp].[moe]([m5C])p.[moe](A)p.[moe](G)p.[moe](G)p.[moe](T)[sp].[moe]([m5C])}$$$$ (last 3' nucleoside missing)” came in with a 3 h FOB score of 0 score 0-7.

“RNA1{[moe](G)[sp].[moe](G)p.[moe]([m5C])p.[moe](T)[sp].d(G)[sp].d([m5C])[sp].d(G)[sp].d(G)[sp].d(T)[sp].d(T)[sp].d(G)[sp].d(T)[sp].[moe](T)p.[moe](T)p.[moe]([m5C])p.[moe]([m5C])[sp].[moe]([m5C])}$$$$ (last 3' nucleoside missing)” displayed a 3 h FOB score of 6 score 0-7.

“RNA1{[moe](G)[sp].[moe](G)p.[moe]([m5C])p.[moe](T)p.[moe](G)p.[moe]([m5C])[sp].d(G)[sp].d(G)[sp].d(T)[sp].d(T)[sp].d(G)[sp].d(T)[sp].d(T)[sp].d(T)[sp].[moe]([m5C])p.[moe]([m5C])[sp].[moe]([m5C])}$$$$ (last 3' nucleoside missing)” yielded a 3 h FOB score of 2.5 score 0-7.

In the case of “RNA1{[moe](G)[sp].[moe](G)p.[moe]([m5C])p.[moe](T)p.[moe](G)p.[moe]([m5C])p.d(G)[sp].d(G)[sp].d(T)[sp].d(T)[sp].d(G)[sp].d(T)[sp].d(T)[sp].d(T)[sp].d([m5C])[sp].[moe]([m5C])p.[moe]([m5C])[sp].[moe](T)}$$$$ (last 3' nucleoside missing)”, the 3 h FOB score came out at 5.25 score 0-7. The figure for “RNA1{[moe](G)[sp].[moe](G)p.[moe]([m5C])p.[moe](T)p.[moe](G)p.d([m5C])[sp].d(G)[sp].d(G)[sp].d(T)[sp].d(T)[sp].d(G)[sp].d(T)[sp].d(T)[sp].d(T)[sp].[moe]([m5C])p.[moe]([m5C])p.[moe]([m5C])[sp].[moe](T)}$$$$ (last 3' nucleoside missing)” is 5.5 score 0-7. To “RNA1{[moe](G)[sp].[moe](G)p.[moe]([m5C])p.[moe](T)p.d(G)[sp].d([m5C])[sp].d(G)[sp].d(G)[sp].d(T)[sp].d(T)[sp].d(G)[sp].d(T)[sp].d(T)[sp].[moe](T)p.[moe]([m5C])p.[moe]([m5C])p.[moe]([m5C])[sp].[moe](T)}$$$$ (last 3' nucleoside missing)” belongs 6 score 0-7; to “RNA1{[moe](G)[sp].[moe](G)p.[moe]([m5C])p.[moe]([m5C])[sp].d([m5C])[sp].d([m5C])[sp].d(T)[sp].d(A)[sp].d(G)[sp].d([m5C])[sp].d(G)[sp].d([m5C])[sp].[moe](G)p.[moe]([m5C])p.[moe](G)p.[moe](A)[sp].[moe]([m5C])}$$$$ (last 3' nucleoside missing)”, 2.5 score 0-7.

In turn, “RNA1{[moe](G)[sp].[moe](G)p.[moe]([m5C])p.[moe]([m5C])p.[moe]([m5C])p.[moe]([m5C])[sp].d(T)[sp].d(A)[sp].d(G)[sp].d([m5C])[sp].d(G)[sp].d([m5C])[sp].d(G)[sp].d([m5C])[sp].[moe](G)p.[moe](A)[sp].[moe]([m5C])}$$$$ (last 3' nucleoside missing)” returned a 3 h FOB score of 3.25 score 0-7. The figure for “RNA1{[moe](G)[sp].[moe](G)p.[moe]([m5C])p.[moe]([m5C])p.[moe]([m5C])p.[moe]([m5C])p.d(T)[sp].d(A)[sp].d(G)[sp].d([m5C])[sp].d(G)[sp].d([m5C])[sp].d(G)[sp].d([m5C])[sp].d(G)[sp].d(A)[sp].[moe]([m5C])p.[moe](T)[sp].[moe]([m5C])}$$$$ (last 3' nucleoside missing)” is 1.25 score 0-7.

On to “RNA1{[moe](G)[sp].[moe](G)p.[moe]([m5C])p.[moe]([m5C])p.d([m5C])[sp].d([m5C])[sp].d(T)[sp].d(A)[sp].d(G)[sp].d([m5C])[sp].d(G)[sp].d([m5C])[sp].d(G)[sp].d([m5C])[sp].[moe](G)p.[moe](A)p.[moe]([m5C])p.[moe](T)[sp].[moe]([m5C])}$$$$ (last 3' nucleoside missing)”, for which the 3 h FOB score was 1.5 score 0-7. As for “RNA1{[moe](G)[sp].[moe](T)p.[moe](T)p.[moe](A)[sp].d(A)[sp].d(T)[sp].d([m5C])[sp].d(T)[sp].d(T)[sp].d(T)[sp].d(A)[sp].d(T)[sp].[moe]([m5C])p.[moe](A)p.[moe](G)p.[moe](G)[sp].[moe](T)}$$$$ (last 3' nucleoside missing)”, the 3 h FOB score was 1 score 0-7.
